Measured values: patent US9216992B2, “Thieno[3,2-c]pyridine potassium channel inhibitors” (Xention Limited, priority 2005, dated 2015)

Legend:
human Kv1.3 = target: T1, human Kv1.3 (Homo sapiens, UniProt P22001); assay: Kv1.3 Autopatch Electrophysiology; assay type: cell-based; settings: 1 μM compound, CHO cells stably transfected with human Kv1.3, AutoPatch whole cell mode, room temperature; for inhibition at 1 µM: read-out: Kv 1.3% Inhibition at 1 μM
T1 construct: expressed in transfected cells; host or cells: stably transfected cells
Experimental: Kv1.3 Autopatch Electrophysiology Method
(§1) Cells stably transfected with cDNA for human Kv1.3 (in pcDNA3.1) were grown in Ex-cell 302 serum-free medium for CHO cells, supplemented with 10 μl/ml [100×] glutamine, 500 μg/ml G418 (gentimicin), and 1% HT supplement (50×, hypoxanthine and thymidine). Compounds were tested on these cells using the AutoPatch technology in whole cell mode.
The external bathing solution contained (in mM): 150 NaCl, 10 KCl, 1 MgCl2, 3 CaCl2, 10 HEPES, pH 7.4 with NaOH. Patch pipettes were filled with an electrode solution of composition (in mM): 100 K-Gluconate, 20 KCl, 1 MgCl2, 1 CaCl2, 10 HEPES, 11 EGTA, 5 ATP—Na2, 2 Glutathione pH 7.2 with KOH.
(§2) Compounds were dissolved in DMSO (100%) and made up in the external bather at a concentration of 1 μM. All experiments were conducted at room temperature (22-24° C.).
(§3) A cell suspension (10 ml), with a density of 100,000 cells/ml, was aliquoted into a 15 ml centrifuge tube and transferred to an incubator (37° C., 5% CO2) for approximately one hour before use. Following 60 min incubation, a tube was taken and centrifuged at 1000 rpm for 4 mins at room temperature. 9.5 ml supernatant was thence discarded, leaving a cell pellet at the bottom of the tube. The pellet was then resuspended using 100 μl of cold (4° C.), filtered (0.22 μm), 0.2% BSA/bather solution (0.02 g BSA/10 ml bather). The bottom of the tube was manually agitated gently until the solution became cloudy with cells. The 100 μl cell resuspension solution was then stored on the bench at 4° C. (using a Peltier-based temperature control device) until used.
(§4) A length of capillary glass (1B150F-4, WPI) was dipped into the cell suspension solution, such that ˜3 cm column of fluid was taken up by capillary action. A Ag/AgCl wire was dropped into the non-dipped end of the capillary also. The outside of the solution-filled end of the capillary was then dried and the capillary was loaded into the AutoPatch™. Borosilicate glass patch pipettes (from 1.5 mm OD, thin-walled filamented, GC150-TF capillary glass, Harvard) were pulled using a DMZ pipette puller (Zeitz Instruments), and were back-filled using the internal pipette solution, being careful that no bubbles remain at the tip or in the body of the pipette. Patch pipettes typically had resistances of 2.3-3.5 MΩ. Once filled, the pipette tip and a proportion of the shaft (˜15 mm) were dipped into Sigmacote (Sigma). The recording pipette was then loaded into the AutoPatch™. Automated patch-clamping was initiated by the operator, but thereafter AutoPatch.exe continued the experiment providing that pre-set conditions and criteria were satisfied.
(§5) Whole cell patch-clamp recordings were made using the AutoPatch™ rig, which incorporated an EPC9 or EPC10 amplifier (HEKA, Germany) under control of Pulse software (v8.54 or v8.76, HEKA, Germany), a motion controller with 2 translators (Newport, UK), valve controller (VF1) and a c-level suction device all at room temperature (22-24° C.). This equipment was completely under the control of AutoPatch.exe and operator intervention was only made when there was a requirement to refill the drug reservoirs or to prevent the loss of a cell due to a technical error. Cells with an Rseries greater than 18 MΩ were discounted from the experiment.
(§6) Qualification stages prior to perfusion and drug application ensured that the observed current met the criteria for the experiment. Only those cells with an IK>400 pA were used for experiments. Cells were continuously perfused with external solution at a flow rate of 1.8-2 ml/minute. […] Online analysis of the hKv1.3 current during the application of compounds was performed by the AutoPatch™ software. Voltage-step protocols and analysis of data was performed as described for conventional electrophysiology.
(§7) Electrophysiology voltage-step protocols and analysis of data was performed as follows. Data was sampled at 5 kHz, and filtered with a −3 dB bandwidth of 2.5 kHz. Cells were held at a voltage of −80 mV. […]

human Kv1.5 = target: T2, human Kv1.5 (Homo sapiens, UniProt P22460); assay: Kv1.5 Autopatch Electrophysiology; assay type: cell-based; settings: 1 μM compound, CHO cells stably transfected with human Kv1.5, AutoPatch whole cell mode, room temperature; for inhibition at 1 µM: read-out: Kv 1.5% Inhibition at 1 μM
T2 construct: expressed in transfected cells; host or cells: stably transfected cells
Experimental: Kv1.5 Autopatch Electrophysiology Method
as §1, with “Kv1.5” for “Kv1.3”, “pEF6::VA-His-TOPO)” for “pcDNA3.1)”, “5” for “500”, “blasticidin” for “G418 (gentimicin),”
The external bathing solution contained (in mM): 150 NaCl, 10 KCl, 1 MgCl2, 3 CaCl2, 10 HEPES, pH 7.4 with NaOH. Patch pipettes were filled with an electrode solution of composition (in mM): 160 KCl, 0.5 MgCl2, 10 HEPES, 1 EGTA, pH 7.4 with KOH.
as §2, §3, §4, §5
as §6, with “IK>500” for “IK>400”, “hKv1.5” for “hKv1.3”
as §7

T1 sequence (P22001 whole entry): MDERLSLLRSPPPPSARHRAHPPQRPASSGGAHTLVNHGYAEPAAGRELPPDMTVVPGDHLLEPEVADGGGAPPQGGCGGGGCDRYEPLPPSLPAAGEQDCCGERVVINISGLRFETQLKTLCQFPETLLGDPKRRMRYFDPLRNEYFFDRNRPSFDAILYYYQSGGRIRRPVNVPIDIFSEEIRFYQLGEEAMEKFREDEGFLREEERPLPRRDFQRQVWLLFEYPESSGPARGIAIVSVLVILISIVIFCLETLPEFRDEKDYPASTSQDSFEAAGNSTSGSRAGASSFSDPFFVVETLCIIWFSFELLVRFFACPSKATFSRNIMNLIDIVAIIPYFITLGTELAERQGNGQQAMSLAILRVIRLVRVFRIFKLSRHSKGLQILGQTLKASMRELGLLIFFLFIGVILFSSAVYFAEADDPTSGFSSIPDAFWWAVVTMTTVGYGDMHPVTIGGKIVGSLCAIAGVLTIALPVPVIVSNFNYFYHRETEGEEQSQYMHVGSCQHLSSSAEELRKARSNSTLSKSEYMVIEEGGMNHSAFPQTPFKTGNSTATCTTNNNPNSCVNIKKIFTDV
T2 sequence (P22460 whole entry): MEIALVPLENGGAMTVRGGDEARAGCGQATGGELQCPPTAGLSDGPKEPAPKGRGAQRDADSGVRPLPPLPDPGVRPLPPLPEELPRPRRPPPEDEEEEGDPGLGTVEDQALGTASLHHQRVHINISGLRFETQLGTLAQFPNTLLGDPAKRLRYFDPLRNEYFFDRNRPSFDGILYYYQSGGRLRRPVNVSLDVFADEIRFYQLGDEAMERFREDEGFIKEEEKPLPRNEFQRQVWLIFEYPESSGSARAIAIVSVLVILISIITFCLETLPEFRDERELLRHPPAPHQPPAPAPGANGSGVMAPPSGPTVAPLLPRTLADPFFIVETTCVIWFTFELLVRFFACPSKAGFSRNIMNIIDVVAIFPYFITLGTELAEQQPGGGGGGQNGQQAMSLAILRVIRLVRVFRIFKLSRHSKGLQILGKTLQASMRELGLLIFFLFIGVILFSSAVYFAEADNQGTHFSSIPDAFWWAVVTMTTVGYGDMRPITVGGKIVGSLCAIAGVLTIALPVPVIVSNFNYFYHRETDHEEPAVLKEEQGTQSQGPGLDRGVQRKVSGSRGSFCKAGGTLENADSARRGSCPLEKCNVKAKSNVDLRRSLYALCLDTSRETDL

inhibition at 1 µM (human Kv1.3) [%] | inhibition at 1 µM (human Kv1.5) [%] | Kv 1.3% Inhibition at 1 μM (human Kv1.3) [%] | Kv 1.5% Inhibition at 1 μM (human Kv1.5) [%] | SMILES
34 | 24.7 | – | – | Cc1ccc(-c2csc3c(-c4ccc(F)cc4)cnc(NCc4ccccc4)c23)cc1 [Example 45, Benzyl-[7-(4-fluoro-phenyl)-3-p-tolyl-thieno[3,2-c]pyridin-4-yl]-amine]
24.4 | 39.2 | – | – | Cc1ccc(-c2cnc(NCc3ccccc3)c3c(-c4ccc(C)cc4)csc23)cc1 [Example 33, Benzyl-(3,7-di-p-tolyl-thieno[3,2-c]pyridine-4-yl)-amine]
15.5 | 52.4 | – | – | Cc1ccc(-c2csc3c(-c4cccc(O)c4)cnc(NCc4ccccc4)c23)cc1 [Example 36, 3-(4-Benzylamino-3-p-tolyl-thieno[3,2-c]pyridin-7-yl)-phenol]
26.3 | 39.8 | – | – | Cc1ccc(-c2csc3c(-c4cccc(S(C)(=O)=O)c4)cnc(NCc4ccccc4)c23)cc1 [Example 41, Benzyl-[7-(3-methanesulfonyl-phenyl)-3-p-tolyl-thieno[3,2-c]pyridin-4-yl]-amine]

Second part, the compound before the results:

SMILES | inhibition at 1 µM (human Kv1.3) [%] | inhibition at 1 µM (human Kv1.5) [%] | Kv 1.3% Inhibition at 1 μM (human Kv1.3) [%] | Kv 1.5% Inhibition at 1 μM (human Kv1.5) [%]
Fc1ccc(-c2csc3ccnc(NCc4ccc5c(c4)OCCO5)c23)cc1 [Example 17, (2,3-Dihydro-benzo[1,4]dioxin-6-ylmethyl)-[3-(4-fluoro-phenyl)-thieno[3,2-c]pyridin-4-yl]-amine] | 59.6 | 86.1 | – | –
c1ccc(CCCCNc2nccc3scc(-c4ccccc4)c23)cc1 [Example 30, (4-Phenyl-butyl)-(3-phenyl-thieno[3,2-c]pyridin-4-yl)-amine] | – | – | 82.8 | 65.8
c1ccc(-c2csc3ccnc(NCc4ccccn4)c23)cc1 [Example 12, (3-Phenyl-thieno[3,2-c]pyridin-4-yl)-pyridin-2ylmethyl-amine] | 46.1 | 59.6 | – | –
Fc1ccc(-c2csc3ccnc(NCc4ccccc4)c23)cc1 [Example 22, Benzyl-[3-(4-fluoro-phenyl)-thieno[3,2-c]pyridin-4-yl]-amine] | 68.6 | 90.2 | – | –
COc1cccc(-c2csc3ccnc(NCc4ccc5c(c4)OCCO5)c23)c1 [Example 19, (2,3-Dihydro-benzo[1,4]dioxin-6-ylmethyl)-[3-(3-methoxy-phenyl)-thieno[3,2-c]pyridin-4-yl)-amine] | 73.5 | 75.6 | – | –
